Source: patent US20070037783A1, “Migrastatin analogs and uses thereof” (priority 2003, published 2007)
Like-named read-outs stand apart in the source and are kept apart here. Each block holds one compound with its values, some of them ahead of it.

Tests used:
[1] = system: 4T1 mouse breast tumor cells; test: Boyden chamber cell migration assay with 4T1 tumor cells; format: cell-based; conditions: for IC50: chamber cell migration, 6-8 h, average of three experiments, read-out: IC50 (4T1 tumor cells)
Experimental: The biological evaluation of the compounds (in terms of their ability to inhibit cell migration) was accomplished in a Boyden chamber cell migration assay. In this assay, mouse breast tumor cells (4T1 cells) or endothelial cells (HUVECs) are seeded on the upper chamber of a transwell insert. Growth factor-containing serum is added to the lower chamber.
Chamber Cell Migration Assay (Tables 4 and 6): Cell migrations were assayed with Boyden chambers [8.0 μm pore size, polyethylene terephthalate membrane, FALCON cell culture insert (Becton-Dickinson)]. 4T1 mouse breast tumor cells or HUVECs were trypsinized and counted. 300 μl of 5-10×10^4 cells in serum-free medium was added to the upper chamber and 500 μl of medium with 10% fetal bovine serum (FBS) was added to the lower chamber. […] Cells on the inside of the transwell inserts were removed with a cotton swab, and cells on the underside of the insert were fixed and stained. Photographs of three random regions were taken and the number of cells was counted to calculate the average number of cells that have transmigrated.

[2] = rcm bond, Grubbs-II, toluene, 111.0 °C, 0.25 h
HUVEC = test: Tube formation assay (preliminary, Table 1); format: cell-based, human; conditions: minimal concentration causing definite disturbance of tube network, 16-18 h, tested 200, 100, 50, 25, 10 μM
Experimental: 1. Tube Formation Assay (Table 1):
A protocol was designed based on the instructions from the provider (BD Bioscience, San Jose, Calif.). Briefly, wells of a 48 well culture dish were covert with 150 μL matrigel and the matrigel was gelatinized for 30 min at 37° C. A 80-90% confluent HUVEC (BD Bioscience, San Jose, Calif.) culture was trypsin treated, the detached cells were collected by centrifugation and resuspended in EGM-2 media (BD Bioscience, San Jose, Calif.). Cell concentration was adjusted to 100.000 cells/mL. 400 μL of the cell suspension were filled in the matrigel coated wells, and a solution of the inhibitor was added to the intended final concentration. The plates were incubated at 37° C. with 5% CO2 for 16-18 h. Media was removed, and the matrigel surface was washed twice with 500 μL PBS before cells were labeled with 250 μL 8 μM Calcein AM (Pierce, Rockford, Ill.) in PBS for 30 min at 37° C. After two additional washing steps (500 μL PBS) cells were visualized under an inverted microscope. Fluorescence was excited at 488 nm and recorded at 538 nm. The minimum effect concentration was defined as the minimal inhibitor concentration that caused a definite disturbance of the complexity of the formed tube network.

[3] = system: adherent cells (e.g. KYSE-520 cells); test: Wound healing (scratch) assay (preliminary, Table 2); format: cell-based; conditions: 28 to 30 h, compared to 100 μM Migrastatin, tested 200, 100, 50, 25, 10 μM
Experimental: 2. Wound Healing Assay (Table 2)
The wound healing assay was performed based on the method described by Nakae et al. (Nakae et al., J. Antibiotics (2000), 53, 1130-1136). Briefly, adherent cells were grown in a suitable media to confluence (e.g. KYSE-520 cells in RPMI-1640 with 10% FBS). Cells were starved for 24 h in serum free media. A scratch (ca. 0.5 mm) was applied and the cell layer was washed twice with PBS after removal of the media. Fresh, serum free media with the test compound at the desired concentration was added and the cells were incubated for 28 to 30 h at 37° C., 5% CO2. The scratch size was compared to that observed for cells exposed to 100 μM Migrastatin. Test compounds associated with a scratch size equal to or larger than that observed for cells exposed to 100 μM Migrastatin were deemed to have cell migration inhibitory activity at least equal to Migrastatin.

[4] = Mouse plasma stability study (HPLC); format: in vitro ADME
Experimental: Mouse Plasma Stability Studies (Table 5): HPLC conditions: The sample is injected and separated using an Inertsil ODS3 6u 3×150 mm column with a mobile phase of MeCN and water (50% for migrastatin) at a flow of 0.4 mL/min, monitored at 220 nm at 0.02 AUFS (the retention time for migrastatin is ca. 4 min, the identity of this peak was confirmed by mass spectral analysis). Incubation and sample preparation conditions: A solution (ca. 30 mM) of chemical compound (Table 5) in DMSO is prepared. 2 μL of the solution is added to a mixture containing 200 μL of mouse plasma and 800 μL of PBS. The resulting solution is put into a water bath at 37° C., and 100 μL of sample is withdrawn at 10, 20, 30, 45, and 60 min. The precipitate is removed by centrifugation and 20 μL of the supernatant is injected onto the HPLC.

[5] = system: HUVECs (human umbilical vein endothelial cells); test: Boyden chamber cell migration assay with HUVECs; format: cell-based; conditions: chamber cell migration; average of three experiments; read-out: IC50 (HUVEC)
Experimental: Chamber Cell Migration Assay (Tables 4 and 6): Cell migrations were assayed with Boyden chambers [8.0 μm pore size, polyethylene terephthalate membrane, FALCON cell culture insert (Becton-Dickinson)]. 4T1 mouse breast tumor cells or HUVECs were trypsinized and counted. 300 μl of 5-10×10^4 cells in serum-free medium was added to the upper chamber and 500 μl of medium with 10% fetal bovine serum (FBS) was added to the lower chamber. The transwells were incubated for 6-8 h at 37° C. with different concentrations of chemical compound in both upper and lower chamber. Cells on the inside of the transwell inserts were removed with a cotton swab, and cells on the underside of the insert were fixed and stained. Photographs of three random regions were taken and the number of cells was counted to calculate the average number of cells that have transmigrated.

[6] = system: 4T1 tumor lung metastasis; test: 4T1 tumor lung metastasis in syngeneic mice (6-thioguanine clonogenic assay); format: in vivo, BALB/c mice; conditions: for lung metastasis colonies: lungs Day 28, mean and standard deviation
From the text: Inhibition of metastasis of mouse breast tumors by migrastatin alogs in mice. 4T1 mouse breast tumor cell line was isolated from a single spontaneously arising mammary tumor from a BALB/BfC3H mouse (MMTV+).^62 The 4T1 tumor closely mimics human breast cancer in its anatomical site, immunogenecity, growth characteristics, and metastatic properties.^63 From the mammary gland, 4T1 tumor spontaneously metastasizes to a variety of target organs including the lung, bone, brain, and liver through primarily a hematogenous rout.^64
To assess the efficacy of therapeutic application of migrastatin analogs in the 4T1 murine mammary carcinoma models, we administered migrastatin analogs (macroketone and macrolactam) to BALB/c mice carrying the 4T1 tumors.
Female BALB/c mice (6-8 week old) were purchased from the Jackson Laboratory (Bar Harbor, Me.). All mice were housed at the Weill Medical College of Cornell University Animal Facilities in accordance with the Principles of Animal Care (NIH publication no. 85-23, revised 1985). 4T1 tumor cells (1×10^5) were injected subcutaneously into the abdominal mammary gland area of mice in 0.1 ml of a single-cell suspension in phosphate buffered saline (PBS) on Day 0. The dosage of tumor implantation was empirically determined to give rise to tumor of ˜10 mm in diameter in untreated wild type mice in 21-23 days. On Day 7, when the tumors averaged in size ˜4-5 mm in diameter, migrastatin analogs or control PBS saline were given every day by intraperitoneal injection at 10 mg/kg or 20 mg/kg per mouse until Day 25. On Day 28, the mice were sacrificed. This regiment of migrastatin analogs was well tolerated with no signs of overt toxicity. Every group included five mice. Primary tumors were measured using electronic calipers on the day when the mice were sacrificed. Tumor size was the square root of the product of two perpendicular diameters. Numbers of metastatic 4T1 cells in lung were determined by the clonogenic assay.^63 In brief, lungs were removed from each mouse on Day 28, finely minced and digested in 5 ml of enzyme cocktail containing 1× PBS and 1 mg/ml collagenase type IV for 2 hours at 37° C. on a platform rocker. After incubation, samples were filtered through 70 uM nylon cell strainers and washed twice with PBS. Resulting cells were suspended and plated serially diluted in 10 cm tissue culture dishes in medium RPMI1640 containing 60 uM thioguanine for clonogenic growth. 6-Thioguanine-resistant tumor cells formed foci after 14 days, at which time they were fixed with methanol and stained with 0.03% methylene blue for counting.
Treatment 4T1 tumor lung metaotmis in smgencie mice with Kigrastatin analogs (See, FIG. 4). 4T1 tumor cells (10^5) were injected s.c. in the abdominal mammary gland with 0.1 ml of a single-cell suspension. Macroketone or macrolactam at 10 mg/kg or 20 mg/kg was given i.p. on Day 7 when the tumor size was about 5 mm in diameter, and everyday until Day 25. On Day 28, the mice were sacrificed. Each group comprised five mice. Lung metastasis was measured by the 6-thiogunine clonogenic assay. The mean and standard deviation are presented. In the control group (daily PBS injection), there were 61300±18900 colonies.

Compound: CN1c2ccccc2C(=O)N2CCc3c([nH]c4ccccc34)[C@H]21 [evodiamine, reference compound]
IC50 ([1]; Mus musculus): 0.315 µM

Compound: CO[C@H]1C=CCCCCC(=O)NC/C(C)=C\[C@@H](C)[C@@H]1O[Si](C)(C)C(C)(C)C
ring closure, yield of all isomers ([2]; from C=CCCCCC(=O)NC/C(C)=C\[C@@H](C)[C@H](O[Si](C)(C)C(C)(C)C)[C@H](C=C)OC, 0.709 mM): 60%

Compound: CO[C@H]1/C=C/CCCCC(=O)OC/C(C)=C\[C@@H](C)[C@@H]1OC(C)=O [acetylated macrolactone (49), Acetylated Macrolactone]
IC50 [1]: 0.192 µM

Compound: CO[C@H]1C=CCC/C=C/C(=O)O[C@H]([C@H](C)C(=O)CCCC2CC(=O)NC(=O)C2)/C(C)=C\[C@@H](C)[C@@H]1O[Si](C)(C)C(C)(C)C
ring closure, yield of all isomers ([2]; from C=CCC/C=C/C(=O)O[C@@H](/C(C)=C\[C@@H](C)[C@H](O[Si](C)(C)C(C)(C)C)[C@H](C=C)OC)[C@H](C)C(=O)CCCC1CC(=O)NC(=O)C1, 0.46 mM): 69%

Compound: N-Methyl-2,3-Dihydromigrastatin [N-methyl-2,3-dihydromigrastatin (42)]
IC50 [1]: 7 µM

Compound: CO[C@H]1C=CCCCCC(=O)O[C@H]([C@H](C)C(=O)CCCC2CC(=O)NC(=O)C2)/C(C)=C\[C@@H](C)[C@@H]1O[Si](C)(C)C(C)(C)C
ring closure, yield of all isomers ([2]; from C=CCCCCC(=O)O[C@@H](/C(C)=C\[C@@H](C)[C@H](O[Si](C)(C)C(C)(C)C)[C@H](C=C)OC)[C@H](C)C(=O)CCCC1CC(=O)NC(=O)C1, 0.48 mM): 79%

Compound: N-Methyl-migrastatin
Minimum effect concentration (HUVEC): 200 µM
Minimum effect concentration [3]: 100 µM

Compound: COC1C=CCCCCC(=O)OC(C(C)C(=O)CCCC2CC(=O)NC(=O)C2)C(C)=CC(C)C1O (centres unmarked) [2,3-dihydromigrastatin (41), 2,3-Dihydromigrastatin]
Minimum effect concentration (HUVEC): 50 µM
Minimum effect concentration [3]: 25 µM
IC50 [1]: 10 µM

Compound: COC1C=CCCC=CC(=O)OCC(C)=CC(C)C1O (centres unmarked) [migrastatin core (45), Migrastatin Core]
stability (t1/2, mouse plasma) ([4]; mouse plasma/PBS, 37° C., sampled up to 60 min): 20 min
stability (mouse plasma), in words ([4]; stable = intensity of HPLC signal unchanged over 60 min of incubation): hydrolyzed rapidly
IC50 [5]: 0.15 µM

Now from value to compound, other results behind:

IC50 [1]: 8.9 µM
Compound: CO[C@H]1/C=C/CCCCC(O)CC/C(C)=C\[C@@H](C)[C@@H]1O (some centres unmarked) [macrocyclic secondary alcohol (69), Macrocyclic Secondary Alcohol]

IC50 [1]: 3.1 µM
Compound: CO[C@H]1/C=C/CCCCC(C)(O)CC/C(C)=C\[C@@H](C)[C@@H]1O (some centres unmarked) [macrocyclic tertiary alcohol (70), Marocyclic Tertiary Alcohol]

IC50 [1]: 2.3 µM
Compound: CO[C@H]1/C=C/CCCCC(=NO)CC/C(C)=C\[C@@H](C)[C@@H]1O [macrooxime (72), Macrooxime]

IC50 [1]: 0.378 µM
Compound: CO[C@@H](/C=C/CCCCC(=O)O)[C@@H](O)[C@H](C)/C=C(/C)CO [hydrolyzed core (51), Hydrolyzed Core]

IC50 [1]: 0.101 µM
Compound: CO[C@H]1/C=C/CCCCC(O)(C(F)(F)F)CC/C(C)=C\[C@@H](C)[C@@H]1O (some centres unmarked) [macrocyclic CF3-alcohol (71), Macrocyclic CF3-Alcohol]
effect on 4T1 tumor cell migration in the chamber assay, in words ([1]; chamber assay): displays the same activity profile as macroketone 60

IC50 [1]: 0.255 µM
Compound: COC1C=CCCCCC(=O)NCC(C)=CC(C)C1O (centres unmarked) [macrolactam (55), Macrolactam]
IC50 [5]: 18 µM
inhibition of lung metastasis ([6]; 10 mg/kg i.p. daily Day 7-25): ~91%
lung metastasis colonies ([6]; 10 mg/kg i.p. daily Day 7-25): 5333±1778 colonies
inhibition of lung metastasis ([6]; 20 mg/kg i.p. daily Day 7-25): ~91%
lung metastasis colonies ([6]; 20 mg/kg i.p. daily Day 7-25): 5675±6263 colonies
